This note sets out measurements from patent publication US6313092A, “Method for increasing the electrotransport flux of polypeptides” (ALZA Corporation, priority 1998, dated 2001).

Usually EC50 stands for the concentration at which the effect is half-maximal.

The nature of data set [1]: Stability on incubation with stripped stratum corneum. Format: in vitro ADME, human.
A short description of data set [2]: In vitro electrotransport flux of the PTH analogs. Format: in vitro ADME, human. The settings on record: retro-inverso versions, 1 mM donor pH 5.0, 100 μA cm^-2, 32° C. How it is done:
In vitro electrotransport studies were carried out in multi-compartment, custom-built, small volume cells using anodic drive. 1 mM PTH in 10 mM buffer was placed in the donor compartment and 25 mM final ionic strength receptor was placed in the receptor compartment. The receptor solution was 15 mM NaCl buffered to pH 7 with 10 mM imidazole, 0.1% bovine serum albumin (BSA) as a blocking agent, Tween 20 detergent and sodium azide as a bactericide.
Heat-stripped human cadaver stratum corneum was placed between the donor and receptor compartments with the epidermis side toward the receptor compartment. A constant DC current of […] (ie,0.1 mA/cm^2) was applied. Cells were maintained at 32° C. during the in vitro studies with receptor samples taken every 2 hours (receptor volume removed and replaced with "fresh" receptor at each sampling). Receptor samples were analyzed by reversed-phase HPLC.
Peak areas of PTH receptor samples were compared to standard curves of the same analog of known concentrations run at the same time using an analytical polymeric column, at a flow rate of 1.5 mL/min with a gradient from 10-50% B in ten minutes for elution. Buffer A was 0.1% trifluroacetic acid (TFA), 1% acetonitrile; Buffer B was 0.1% TFA, 98.9% acetonitrile. Analog concentrations were converted to mass flux and plotted vs. time.
For the in vitro electrotransport studies, described donors contained the retro-inverso versions (ie, D-amino acid residues were used and were assembled in reverse order than usual) of the PTH analogs (1 mM) in aqueous solutions at pH 5.0. This was because PTH analogs 1 and 2 were not stable when incubated with stripped stratum corneum, probably due to proteolytic digestion by skin proteases. The fully assembled electrotransport cells were incubated at 32±0.5° C. The skin contact area available for transport was 1.27 cm^2. The donor compartment volume was 200 μL; the receptor compartment volume was 350 μL. The receptor solution was separated from the cathode by an anion exchange membrane (Ionac™, Eletrosynthesis Co., Lancaster, N.Y.). Each cell was connected to a constant current source at a standard current density of 100 μA cm^-2. The voltage drop across each cell was monitored at approximately 2-hour intervals for the duration of the experiment.

The next data set concerns the target T1, PTH receptor (Rattus norvegicus, UniProt P25961).
T1 sequence (P25961 27-591): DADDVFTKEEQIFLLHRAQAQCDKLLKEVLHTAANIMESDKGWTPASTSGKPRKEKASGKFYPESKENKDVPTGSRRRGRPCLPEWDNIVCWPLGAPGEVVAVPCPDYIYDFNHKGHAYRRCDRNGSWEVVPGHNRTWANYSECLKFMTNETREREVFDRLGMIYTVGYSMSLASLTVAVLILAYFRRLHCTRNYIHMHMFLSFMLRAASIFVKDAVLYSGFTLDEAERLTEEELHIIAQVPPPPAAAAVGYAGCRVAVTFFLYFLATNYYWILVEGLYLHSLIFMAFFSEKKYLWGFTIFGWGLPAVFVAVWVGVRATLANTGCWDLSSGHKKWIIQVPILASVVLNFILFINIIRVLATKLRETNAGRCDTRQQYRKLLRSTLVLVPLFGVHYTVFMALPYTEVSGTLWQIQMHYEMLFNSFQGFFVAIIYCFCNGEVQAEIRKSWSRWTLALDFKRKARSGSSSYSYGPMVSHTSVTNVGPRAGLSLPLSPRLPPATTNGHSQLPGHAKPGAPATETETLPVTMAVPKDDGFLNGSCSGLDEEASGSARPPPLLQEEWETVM
In words: PTH analog activity assay: stimulation of adenylate cyclase (cAMP by SPA) in UMR106 cells.

Where a SMILES comes first, the peptide text is derived from it. The star is where a group is joined. hSer(lactone) = O=C1OCC[C@@H]1N*

Description for PTH receptor: PTH concentrations were determined by OD280 using an extinction coefficient of 6600 for the recombinant peptide and 5500 for the synthetic peptide. The rat osteosarcoma cell line UMR106 (ATCC CRL 1661) was used for in vitro testing of the peptide's ability to activate the PTH receptor. Activation of the PTH receptor leads to an intracellular rise in cAMP concentration.
The UMR106 cells were seeded at about 2.5×10^5 per well in a 48 well dish and allowed to grow to confluence. Assays were performed on cells 3-5 days postconfluence. The media (Dulbecco's modified Eagle's medium, DMEM, with fetal calf serum) was removed, and 1 mL of fresh media was applied. PTH (recombinant or synthetic) at various concentrations and 3-isobutyl-l-methyl xanthine (IBMX) at 1 mM final concentration were then added to each well of the plate, which was then incubated for 5 minutes at room temperature. The media was then removed and the cells quickly washed with ice cold PBS. The cells were then extracted twice with 1 mL of absolute ethanol. The two extractions were combined and the ethanol removed by evaporation. The extract was then redissolved in 1 mL of scintillation proximity buffer (SPA buffer) (Amersham, Arlington Heights, Ill.). The cAMP concentration was determined by assay using a scintillation proximity assay (SPA) kit available from Amersham.

Take `CC[C@H](C)[C@H](NC(=O)[C@H](CCC(=O)O)NC(=O)[C@H](CO)NC(=O)[C@@H](NC(=O)[C@@H](N)CO)C(C)C)C(=O)N[C@@H](CCC(N)=O)C(=O)N[C@@H](CC(C)C)C(=O)N[C@@H](CC(C)C)C(=O)N[C@@H](Cc1c[nH]cn1)C(=O)N[C@@H](CC(N)=O)C(=O)N[C@@H](CC(C)C)C(=O)NCC(=O)N[C@@H](CCCCN)C(=O)N[C@@H](Cc1c[nH]cn1)C(=O)N[C@@H](CCCNC(=N)N)C(=O)N[C@@H](CC(N)=O)C(=O)N[C@@H](CO)C(=O)N[C@@H](CC(C)C)C(=O)N[C@@H](CCCNC(=N)N)C(=O)N[C@@H](CCCNC(=N)N)C(=O)N[C@H](C(=O)N[C@@H](CCCNC(=N)N)C(=O)N[C@@H](Cc1c[nH]c2ccccc12)C(=O)N[C@@H](CC(C)C)C(=O)N[C@@H](CCCNC(=N)N)C(=O)N[C@@H](CCCCN)C(=O)N[C@@H](CCCCN)C(=O)N[C@@H](CC(C)C)C(=O)N[C@@H](CCCCN)C(=O)N[C@@H](CC(=O)O)C(=O)N[C@H](C(=O)N[C@@H](Cc1c[nH]cn1)C(=O)N[C@@H](CC(N)=O)C(=O)N[C@@H](Cc1ccc(O)cc1)C(=O)N[C@H]1CCOC1=O)C(C)C)C(C)C` [PTH analog 1] (H-SVSEIQLLHNLGKHRNSLRRVRWLRKKLKDVHNY-{hSer(lactone)}): the “stability when incubated with stripped stratum corneum” value in data set [1] is reported as “not stable”. Further, in data set [2], the Average mass flux is 1.4 μg cm^-2 h^-1 and the median mass flux turned out to be 0.3 μg cm^-2 h^-1. At PTH receptor, this compound yielded a 50% effective concentration (EC50) of 0.9 nM.

On to `CC[C@H](C)[C@H](NC(=O)[C@H](CCC(=O)O)NC(=O)[C@H](CO)NC(=O)[C@@H](NC(=O)[C@@H](N)CO)C(C)C)C(=O)N[C@@H](CCC(N)=O)C(=O)N[C@@H](CC(C)C)C(=O)N[C@@H](CC(C)C)C(=O)N[C@@H](Cc1c[nH]cn1)C(=O)N[C@@H](CC(N)=O)C(=O)N[C@@H](CO)C(=O)NCC(=O)N[C@@H](CCCCN)C(=O)N[C@@H](Cc1c[nH]cn1)C(=O)N[C@@H](CCCNC(=N)N)C(=O)N[C@@H](CC(N)=O)C(=O)N[C@@H](CO)C(=O)N[C@@H](CO)C(=O)N[C@@H](CCCNC(=N)N)C(=O)N[C@@H](CCCNC(=N)N)C(=O)N[C@@H](CO)C(=O)N[C@@H](CCCNC(=N)N)C(=O)N[C@@H](Cc1c[nH]c2ccccc12)C(=O)N[C@@H](CO)C(=O)N[C@@H](CCCNC(=N)N)C(=O)N[C@@H](CCCCN)C(=O)N[C@@H](CCCCN)C(=O)N[C@@H](CO)C(=O)N[C@@H](CCCCN)C(=O)N[C@@H](CC(=O)O)C(=O)N[C@H](C(=O)N[C@@H](Cc1c[nH]cn1)C(=O)N[C@@H](CC(N)=O)C(=O)N[C@@H](CO)C(=O)N[C@H]1CCOC1=O)C(C)C` [PTH analog 2] (H-SVSEIQLLHNSGKHRNSSRRSRWSRKKSKDVHNS-{hSer(lactone)}), for which, in data set [1], the “stability when incubated with stripped stratum corneum” value is reported as “not stable”. In data set [2], the Average mass flux is reported as 4.1 μg cm^-2 h^-1 and the median mass flux was found to be 3.2 μg cm^-2 h^-1.
